Patent US8288431B2, “Substituted spiroindolinones” (Hoffmann-La Roche Inc., priority 2010, dated 2012)

Biological target: interaction between p53 and MDM2 proteins (recombinant GST-tagged MDM2, biotinylated p53 peptide) (Homo sapiens, UniProt Q00987)
Assay: HTRF (homogeneous time-resolved fluorescence) assay of p53-MDM2 interaction
Assay type: binding
Details: bsa 0.02%
Method: The ability of the compounds to inhibit the interaction between p53 and MDM2 proteins was measured by an HTRF (homogeneous time-resolved fluorescence) assay in which recombinant GST-tagged MDM2 binds to a peptide that resembles the MDM2-interacting region of p53 (Lane et al.). Binding of GST-MDM2 protein and p53-peptide (biotinylated on its N-terminal end) is registered by the FRET (fluorescence resonance energy transfer) between Europium (Eu)-labeled anti-GST antibody and streptavidin-conjugated Allophycocyanin (APC).
Add 10 uL diluted compounds (1:5 dilution in reaction buffer) to each well, mix by shaking. Add 20 uL biotinylated p53 peptide (180 nM working solution) in reaction buffer to each well and mix on shaker. Incubate at 37° C. for 1 h. Add 20 uL streptavidin-APC and Eu-anti-GST antibody mixture (6 nM Eu-anti-GST and 60 nM streptavidin-APC working solution) in TBS buffer with 0.2% BSA, shake at room temperature for 30 minutes and read using a TRF-capable plate reader at
665 and 615 nm (Victor 5, Perkin ElmerWallac). If not specified, the reagents were purchased from Sigma Chemical Co.

Sequence of interaction between p53 and MDM2 proteins (recombinant GST-tagged MDM2, biotinylated p53 peptide) (Q00987 whole entry): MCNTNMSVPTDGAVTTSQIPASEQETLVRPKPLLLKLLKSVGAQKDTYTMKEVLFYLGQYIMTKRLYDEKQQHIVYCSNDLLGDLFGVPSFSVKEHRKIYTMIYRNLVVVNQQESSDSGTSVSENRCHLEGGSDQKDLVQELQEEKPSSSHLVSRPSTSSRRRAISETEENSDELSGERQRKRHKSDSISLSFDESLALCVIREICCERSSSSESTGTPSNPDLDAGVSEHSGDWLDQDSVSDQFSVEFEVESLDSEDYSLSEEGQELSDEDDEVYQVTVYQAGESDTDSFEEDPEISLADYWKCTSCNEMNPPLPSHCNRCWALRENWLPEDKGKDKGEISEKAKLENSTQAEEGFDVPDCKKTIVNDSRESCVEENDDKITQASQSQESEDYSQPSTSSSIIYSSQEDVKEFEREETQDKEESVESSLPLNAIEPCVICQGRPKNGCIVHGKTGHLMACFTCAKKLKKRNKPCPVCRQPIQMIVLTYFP

CC(C)(CO)C[C@@H]1CN(C(=O)NCC[C@H](O)CO)[C@H](c2cccc(Cl)c2F)[C@]12C(=O)Nc1cc(Cl)ccc12 (mixture of isomers) [Example 33, rac-(2′S,3′S,4′S)-6-chloro-2′-(3-chloro-2-fluoro-phenyl)-4′-(3-hydroxy-2,2-dimethyl-propyl)-2-oxo-1,2-dihydro-spiro[indole-3,3′-pyrrolidine]-1′-carboxylic acid ((S)-3,4-dihydroxy-butyl)-amide] and COC(=O)c1ccc(NC(=O)N2C[C@@H](CC(C)(C)C)[C@@]3(C(=O)Nc4cc(Cl)ccc43)[C@H]2c2cccc(Cl)c2F)cc1 (racemic) [Example 12, rac-4-{[(2′S,3′S,4′S)-6-chloro-2′-(3-chloro-2-fluoro-phenyl)-4′-(2,2-dimethyl-propyl)-2-oxo-1,2-dihydro-spiro[indole-3,3′-pyrrolidin]e-1′-carbonyl]-amino}-benzoic acid methyl ester] are within 1.5-fold of each other in IC50: 725 nM for the first, 581 nM for the second.

First: CC(C)(C)C[C@@H]1CN[C@H](c2cccc(Cl)c2F)[C@]12C(=O)Nc1cc(Cl)ccc12 (racemic) [Example 6, rac-(2′S,3′S,4′S)-6-chloro-2′-(3-chloro-2-fluoro-phenyl)-4′-(2,2-dimethyl-propyl)-1H-spiro[indole-3,3′-pyrrolidin]-2-one]
Second: CC(C)(C)C[C@@H]1CN(C(=O)NC2CCN(S(C)(=O)=O)CC2)[C@H](c2cccc(Cl)c2F)[C@]12C(=O)Nc1cc(Cl)ccc12 [Example 28, chiral (2′S,3′S,4′S)-6-chloro-2′-(3-chloro-2-fluoro-phenyl)-4′-(2,2-dimethyl-propyl)-2-oxo-1,2-dihydro-spiro[indole-3,3′-pyrrolidine]-1′-carboxylic acid (1-methanesulfonyl-piperidin-4-yl)-amide]
The IC50 of the first is 5.8-fold higher: 773 nM for the first, 133 nM for the second. The second is the more potent here.

CC(C)(C)C[C@@H]1CN(C(=O)OCc2ccc(C(=O)O)cc2)[C@H](c2cccc(Cl)c2F)[C@]12C(=O)Nc1cc(Cl)ccc12 (racemic) [Example 49, rac-(2′S,3′S,4′S)-6-chloro-2′-(3-chloro-2-fluoro-phenyl)-4′-(2,2-dimethyl-propyl)-2-oxo-1,2-dihydro-spiro[indole-3,3′-pyrrolidine]-1′-carboxylic acid 4-carboxy-benzyl ester] was tested, and the IC50 was 178 nM.
